# Test results: patent US10624947B2, “Bactericidal peptides and uses thereof” (INDIANA UNIVERSITY RESEARCH AND TECHNOLOGY CORPORATION, priority 2016, dated 2020)
# Like-named read-outs stand apart in the source and are kept apart here. Ends that are not written are not given here.
# Columns and labels:
# [1] = tested on: Escherichia coli
# Experimental: (§1) Antimicrobial activity was determined using the broth microdilution method based on the general recommendation of the Clinical and Laboratory Standards Institute. Bacteria were grown in Mueller-Hinton broth at 37° C. until OD625 reached 0.06, and then bacteria were further diluted into 1:20 for later use. […] 10 microliter (μL) of diluted bacteria was mixed with 90 μL of peptides at varying concentrations followed by incubation at 37° C. for 16-18 hours. The MIC is the lowest peptide concentration at which visible growth was inhibited. The MIC value was determined at least twice in independent experiments and typically in 3-4 assays.
# [2] = tested on: Klebsiella pneumoniae; conditions: Table 5
# Experimental: as §1
# [3] = tested on: human red blood cells (hRBCs); assay: Hemolytic activity; type: cell-based
# Experimental: The amount of hemoglobin released was measured by the absorbance at 435 nm after a 60-minute incubation with the antimicrobial peptide. The percentage of hRBC lysis was normalized to the amount hemoglobin released by the suspension of the hRBCs in deionized water. The background amount of hRBC lysis was determined by adding phosphate buffered saline (PBS) at the same volume as 8 μM of the peptide to the hRBC for 1 h.
# The hemolytic activities of peptides were determined using human red blood cells (hRBCs) (Innovative Research, Inc., cat. # IPLA-WB3-18103). The hRBCs were washed three times with PBS and then resuspended in PBS. The hRBCs solution was mixed with serial dilutions of the peptides in PBS buffer. The reaction mixtures were incubated for 45 min at 37° C. After centrifugation at 94×g for 10 min, the intact hRBCs were pelleted and the hemoglobin released from hRBCs was monitored by measuring the absorbance of the supernatant at 415 nm. The background level of absorbance was measured in sampled incubated with only PBS buffer. 100% hemolysis was determined in sampled incubated with water. The percentage of hemolysis was calculated according to the following equation. Percentage of hemolysis=[(Asample−Ablank)/Awater]*100%
# Mammalian cells are thought to be less susceptible to cathelicidin peptides in part because the composition of their membrane will be less likely to interact with the peptides. To address this directly, human red blood cells (hRBCs) were tested for lysis after a 45-minute incubation with the peptides. The total lysis of hRBCs was determined by adding water to the cells. The amount of lysis during handling was determined by the addition of phosphate buffered saline at the same volume as that of the peptides.
# [4] = tested on: Cultured human cells; assay: MTT cytotoxicity assay; type: cell-based
Substance,"MIC ([1]; Table 5, Escherichia coli ATCC25922, antibiotic resistance none) [µM]","MIC ([2]; Klebsiella pneumonia 27, Carbapenem resistant) [µM]","MIC ([2]; Klebsiella pneumonia 49, Carbapenem resistant) [µM]","MIC ([2]; Klebsiella pneumonia 83, Carbapenem resistant) [µM]","MIC ([2]; Klebsiella pneumonia 84, Carbapenem resistant) [µM]","MIC ([2]; Klebsiella pneumonia 88, Carbapenem resistant (NDM1+)) [µM]","MIC ([2]; Klebsiella pneumonia 262, Carbapenem resistant (NDM1+)) [µM]",RBC lysis [3],"Cytotoxicity, MTT assay [4]",Minimal inhibitory concentration [1] [µg/mL],Minimal inhibitory concentration ([1]; E. coli ATCC 35218) [µg/mL],Minimal inhibitory concentration ([1]; E. coli ATCC 25922) [µg/mL],Minimal inhibitory concentration ([1]; E. coli IU0342) [µg/mL]
Colistin sulfate [reference compound],1,>32,4,2,2,16,16,,,,,,
GRAKRLRKKLKKLAKKLSPVIPLLHLG [BMAP-27C],,,,,,,,decreased RBC lysis compared to the control H2O,no increased cytotoxicity compared to the controls,32,4,,
"GRFKRFRKKFKKLFKKLSPVIPLLHLG [BMAP-27, reference compound]",,,,,,,,decreased RBC lysis compared to the control H2O,no increased cytotoxicity compared to the controls,8,,,
GRFKRLRKKFKKLFKKLSPVIPLLHLG [BMAP-27A],,,,,,,,decreased RBC lysis compared to the control H2O,no increased cytotoxicity compared to the controls,8,2,2,2
